Our source for the IC50 values is patent US10519177B2, “Heterocyclic compounds and uses thereof” (Plexxikon Inc., priority 2013, dated 2019).

For test [1], the target named is BRD4-BD1 (44-164) (Homo sapiens (Human), UniProt O60885). Briefly: Alphascreen binding assay BRD4-BD1. The settings on record: BRD4(1) H4; read-out: Biochemical activity (IC50 μM) BRD4(1) H4. The gist of the method:
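His-tagged E. coli-expressed BRD4 BD1 (44-164) or BD1-BD2 (1-477) incubated 1 h at room temperature with biotinylated tetra-acetylated histone H4 1-21 peptide and compound in HEPES pH 7.5, NaCl, BSA, Triton X-100, DTT buffer. Ni-chelate/streptavidin AlphaScreen beads (7.5 µg/ml) added, read after 30 min; pIC50 from four-parameter fit.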
Background: Bead proximity is the source of the signal in Alpha formats.

For test [2], the system named is bromodomain. Briefly: at least one of the bromodomain cell assays of Example 57. Format: cell-based. The note with it: at least one of the bromodomain cell assays described in Example 57; read-out: IC50 in at least one of the bromodomain cell assays.
Test [3] concerns MV-4-11 cells. Description: Oncology cell growth assay MV-4-11 (CellTiter Glo). In kind it is cell-based. The note with it: Homo sapiens, MV4-11, 72 h, read-out: Cell activity (IC50 μM) MV-4-11 3d-Growth. The gist of the method:
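MV-4-11 AML cells (MLL-AF4), 3000 per well, exposed to 8-point 1:3 compound titration from 10 μM top concentration (0.2% DMSO) for 72 h. Viability by CellTiter Glo luminescence, normalized to DMSO controls; pIC50 from four-parameter curve fit.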

As a reminder, the IC50 is the concentration that gives 50% inhibition. As to “1-(benzenesulfonyl)-5-(3,5-dimethylisoxazol-4-yl)pyrrolo[2,3-b]pyridine-3-carboxylic acid [P-0169]”, the IC50 was under 1 µM in test [1] and under 10 µM in test [2].

Regarding `Cc1noc(C)c1-c1cnc2c(c1)c(C(O)C1CCC(F)(F)CC1)cn2C` (stereo not shown) [P-0101, (4,4-difluorocyclohexyl)-[5-(3,5-dimethylisoxazol-4-yl)-1-methyl-pyrrolo[2,3-b]pyridin-3-yl]methanol], the IC50 in test [1] and in test [3] was under 1 µM each time.

On to `Cc1noc(C)c1-c1cnc2c(c1)c(Sc1ccccc1)cn2-c1cnn(C)c1` [P-0184, 3,5-dimethyl-4-[1-(1-methylpyrazol-4-yl)-3-phenylsulfanyl-pyrrolo[2,3-b]pyridin-5-yl]isoxazole], for which the IC50 in test [1] was under 1 µM.

As to `Cc1noc(C)c1-c1cnc2c(c1)c(S(=O)(=O)c1ccccc1)cn2-c1cnn(C)c1` [P-0185, 4-[3-(benzenesulfonyl)-1-(1-methylpyrazol-4-yl)pyrrolo[2,3-b]pyridin-5-yl]-3,5-dimethyl-isoxazole], the IC50 in test [1] is under 1 µM.

In the case of `CCOC(=O)C(c1ccccc1)n1cc(-c2cnn(C)c2)c2ncc(-c3c(C)noc3C)cc21` (stereo not shown) [P-0186, ethyl 2-[6-(3,5-dimethylisoxazol-4-yl)-3-(1-methylpyrazol-4-yl)pyrrolo[3,2-b]pyridin-1-yl]-2-phenyl-acetate], in test [1], the IC50 was under 1 µM.

Turning to `Cc1noc(C)c1-c1cnc2c(-c3cnn(C)c3)cn(C(CF)c3ccccc3)c2c1` (stereo not shown) [P-0187, 4-[1-(2-fluoro-1-phenyl-ethyl)-3-(1-methylpyrazol-4-yl)pyrrolo[3,2-b]pyridin-6-yl]-3,5-dimethyl-isoxazole], the IC50 in test [1] was under 1 µM.

Consider `Cc1noc(C)c1-c1cnc2c(-c3cnn(C)c3)cn(Cc3ccccc3C(F)(F)F)c2c1` [P-0188, 3,5-dimethyl-4-[3-(1-methylpyrazol-4-yl)-1-[[2-(trifluoromethyl)phenyl]methyl]pyrrolo[3,2-b]pyridin-6-yl]isoxazole], for which the concentration for half-maximal inhibition (IC50) in test [1] is under 1 µM.

Turning to `Cc1noc(C)c1-c1cnc2c(-c3cnn(C)c3)cn(Cc3c(Cl)cccc3Cl)c2c1` [P-0189, 4-[1-[(2,6-dichlorophenyl)methyl]-3-(1-methylpyrazol-4-yl)pyrrolo[3,2-b]pyridin-6-yl]-3,5-dimethyl-isoxazole], the concentration for half-maximal inhibition (IC50) in test [1] was under 1 µM.

As for `Cc1noc(C)c1-c1cnc2c(-c3cnn(C)c3)cn(Cc3cc(F)ccc3Cl)c2c1` [P-0190, 4-[1-[(2-chloro-5-fluoro-phenyl)methyl]-3-(1-methylpyrazol-4-yl)pyrrolo[3,2-b]pyridin-6-yl]-3,5-dimethyl-isoxazole], in test [1], the half-inhibitory concentration (IC50) was under 1 µM.

For `Cc1noc(C)c1-c1cnc2c(-c3cnn(C)c3)cn(C(CO)c3ccccc3)c2c1` (stereo not shown) [P-0192, 2-[6-(3,5-dimethylisoxazol-4-yl)-3-(1-methylpyrazol-4-yl)pyrrolo[3,2-b]pyridin-1-yl]-2-phenyl-ethanol], the concentration for half-maximal inhibition (IC50) in test [1] is under 1 µM.

As for `Cc1noc(C)c1-c1cnc2c(-c3cnn(C)c3)cn(Cc3ccccc3Cl)c2c1` [P-0193, 4-[1-[(2-chlorophenyl)methyl]-3-(1-methylpyrazol-4-yl)pyrrolo[3,2-b]pyridin-6-yl]-3,5-dimethyl-isoxazole], in test [1], the IC50 was under 1 µM.

Take `Cc1noc(C)c1-c1cnc2c(-c3cnn(C)c3)cn(Cc3ccccc3OC(F)(F)F)c2c1` [P-0194, 3,5-dimethyl-4-[3-(1-methylpyrazol-4-yl)-1-[[2-(trifluoromethoxy)phenyl]methyl]pyrrolo[3,2-b]pyridin-6-yl]isoxazole]: the IC50 in test [1] is under 1 µM.

Turning to `Cc1noc(C)c1-c1cnc2c(-c3cnn(C)c3)cn(Cc3cccnc3)c2c1` [P-0195, 3,5-dimethyl-4-[3-(1-methylpyrazol-4-yl)-1-(3-pyridylmethyl)pyrrolo[3,2-b]pyridin-6-yl]isoxazole], in test [1], the IC50 is under 1 µM.

For `Cc1noc(C)c1-c1cnc2ccn(C(CC#N)C3CCCC3)c2c1` (stereo not shown) [P-0196, 3-cyclopentyl-3-[6-(3,5-dimethylisoxazol-4-yl)pyrrolo[3,2-b]pyridin-1-yl]propanenitrile], in test [1], the 50% inhibitory concentration (IC50) is under 1 µM.

In the case of `Cc1noc(C)c1-c1cnc2c(-c3cnn(C)c3)cn(C(CC#N)C3CCCC3)c2c1` (stereo not shown) [P-0197, 3-cyclopentyl-3-[6-(3,5-dimethylisoxazol-4-yl)-3-(1-methylpyrazol-4-yl)pyrrolo[3,2-b]pyridin-1-yl]propanenitrile], the IC50 in test [1] is under 1 µM.

In the case of `Cc1noc(C)c1-c1cnc2c(-c3cnn(C)c3)cn(Cc3ccccn3)c2c1` [P-0198, 3,5-dimethyl-4-[3-(1-methylpyrazol-4-yl)-1-(2-pyridylmethyl)pyrrolo[3,2-b]pyridin-6-yl]isoxazole], the half-inhibitory concentration (IC50) in test [1] is under 1 µM.

Turning to `Cc1noc(C)c1-c1cnc2c(-c3cn[nH]c3)cn(C(C)c3ccccc3)c2c1` (stereo not shown) [P-0199, 3,5-dimethyl-4-[1-(1-phenyl-ethyl)-3-(1H-pyrazol-4-yl)pyrrolo[3,2-b]pyridin-6-yl]isoxazole], in test [1], the IC50 was under 1 µM.

As to `CCn1cc(-c2cn(C(C)c3ccccc3)c3cc(-c4c(C)noc4C)cnc23)cn1` (stereo not shown) [P-0200, 4-[3-(1-ethylpyrazol-4-yl)-1-(1-phenylethyl)pyrrolo[3,2-b]pyridin-6-yl]-3,5-dimethyl-isoxazole], the IC50 in test [1] is under 1 µM.

For the molecule `C=CCn1cc(-c2cn(C(C)c3ccccc3)c3cc(-c4c(C)noc4C)cnc23)cn1` (stereo not shown) [P-0201, 4-[3-(1-allylpyrazol-4-yl)-1-(1-phenylethyl)pyrrolo[3,2-b]pyridin-6-yl]-3,5-dimethyl-isoxazole], in test [1], the IC50 was under 1 µM.

Consider `COCCn1cc(-c2cn(C(C)c3ccccc3)c3cc(-c4c(C)noc4C)cnc23)cn1` (stereo not shown) [P-0203, 4-[3-[1-(2-methoxyethyl)pyrazol-4-yl]-1-(1-phenyl-ethyl)pyrrolo[3,2-b]pyridin-6-yl]-3,5-dimethyl-isoxazole], for which the half-maximal inhibitory concentration (IC50) in test [1] was under 1 µM.

Consider `Cc1noc(C)c1-c1cnc2c(-c3cnn(C4CCOC4)c3)cn(C(C)c3ccccc3)c2c1` (stereo not shown) [P-0204, 3,5-dimethyl-4-[1-(1-phenyl-ethyl)-3-(1-tetrahydrofuran-3-ylpyrazol-4-yl)pyrrolo[3,2-b]pyridin-6-yl]isoxazole], for which the concentration for half-maximal inhibition (IC50) in test [1] was under 1 µM.

For `Cc1nn(C)cc1-c1cn(C(C)c2ccccc2)c2cc(-c3c(C)noc3C)cnc12` (stereo not shown) [P-0205, 4-[3-(1,3-dimethylpyrazol-4-yl)-1-(1-phenylethyl)pyrrolo[3,2-b]pyridin-6-yl]-3,5-dimethyl-isoxazole], in test [1], the IC50 was under 1 µM.

Consider `Cc1noc(C)c1-c1cnc2c(-c3cnn(C)c3)cn(C(C(=O)O)c3ccccc3)c2c1` (stereo not shown) [P-0206, 2-[6-(3,5-dimethylisoxazol-4-yl)-3-(1-methylpyrazol-4-yl)pyrrolo[3,2-b]pyridin-1-yl]-2-phenyl-acetic acid], for which the IC50 in test [1] is under 1 µM.

On to `Cc1noc(C)c1-c1cnc2c(-c3cnn(C)c3)cn(C(C(=O)NC3CC3)c3ccccc3)c2c1` (stereo not shown) [P-0207, N-cyclopropyl-2-[6-(3,5-dimethylisoxazol-4-yl)-3-(1-methylpyrazol-4-yl)pyrrolo[3,2-b]pyridin-1-yl]-2-phenyl-acetamide], for which the IC50 in test [1] was under 1 µM.

Turning to `Cc1noc(C)c1-c1cnc2c(-c3cnn(C)c3)cn(CC3CCC(F)(F)CC3)c2c1` [P-0209, 4-[1-[(4,4-difluorocyclohexyl)methyl]-3-(1-methylpyrazol-4-yl)pyrrolo[3,2-b]pyridin-6-yl]-3,5-dimethyl-isoxazole], the IC50 in test [1] is under 1 µM.

Turning to `Cc1noc(C)c1-c1cnc2c(-c3cnn(C(F)F)c3)cn(CC3CCC(F)(F)CC3)c2c1` [P-0210, 4-[1-[(4,4-difluorocyclohexyl)methyl]-3-[1-(difluoromethyl)pyrazol-4-yl]pyrrolo[3,2-b]pyridin-6-yl]-3,5-dimethyl-isoxazole], the concentration for half-maximal inhibition (IC50) in test [1] is under 1 µM.

Regarding `Cc1noc(C)c1-c1cnc2c(-c3cnn(C)c3)cn(CC3(F)CCCCC3)c2c1` [P-0212, 4-[1-[(1-fluorocyclohexyl)methyl]-3-(1-methylpyrazol-4-yl)pyrrolo[3,2-b]pyridin-6-yl]-3,5-dimethyl-isoxazole], in test [1], the IC50 was under 1 µM.

`Cc1noc(C)c1-c1cnc2c(-c3cnn(C)c3)cn(CC3CC(F)(F)C3)c2c1` [P-0213, 4-[1-[(3,3-difluorocyclobutyl)methyl]-3-(1-methylpyrazol-4-yl)pyrrolo[3,2-b]pyridin-6-yl]-3,5-dimethyl-isoxazole]: in test [1], the half-maximal inhibitory concentration (IC50) was under 1 µM.

On to `Cc1noc(C)c1-c1cnc2c(-c3cc(C(F)(F)F)n[nH]3)cn(C(C)c3ccccc3)c2c1` (stereo not shown) [P-0215, 3,5-dimethyl-4-[1-(1-phenylethyl)-3-[3-(trifluoromethyl)-1H-pyrazol-5-yl]pyrrolo[3,2-b]pyridin-6-yl]isoxazole], for which the IC50 in test [1] is under 1 µM.

In the case of `Cc1noc(C)c1-c1cnc2c(-c3cnn(C4CC4)c3)cn(C(C)c3ccccc3)c2c1` (stereo not shown) [P-0216, 4-[3-(1-cyclopropylpyrazol-4-yl)-1-(1-phenylethyl)pyrrolo[3,2-b]pyridin-6-yl]-3,5-dimethyl-isoxazole], the IC50 in test [1] is under 1 µM.

Regarding `Cc1noc(C)c1-c1cnc2c(-c3cnn(C)c3)cn([C@@H](C)c3ccccc3)c2c1` [P-0222, 3,5-dimethyl-4-[3-(1-methylpyrazol-4-yl)-1-[(1S)-1-phenylethyl]pyrrolo[3,2-b]pyridin-6-yl]isoxazole], the IC50 in test [1] is under 1 µM.

As to `Cc1noc(C)c1-c1cnc2c(I)cn(C(C)c3ccccc3)c2c1` (stereo not shown) [P-0224, 4-[3-iodo-1-(1-phenylethyl)pyrrolo[3,2-b]pyridin-6-yl]-3,5-dimethyl-isoxazole], the concentration for half-maximal inhibition (IC50) in test [1] was under 1 µM.
